In the assay the test system is BDF1 mice, P388 leukemia ip, median survival T/C. Kind of assay: NCI In Vivo Anticancer Drug Screen. Data for tumor model P388 Leukemia (intraperitoneal) in B6D2F1 (BDF1) mice. The settings on record: endpoint: median survival time, higher = longer survival. Summed up: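 Each value expresses how treatment altered survival: treated-mouse outcome over vehicle-mouse outcome, both groups bearing the transplanted tumour.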

The mark [1] stands for this setting: dose: 200.0 mg/kg/injection, schedule: Q01DX009 (ip), vehicle: water.
Setting [2] is: dose: 400.0 mg/kg/injection, schedule: Q01DX009 (ip), vehicle: water.
The mark [3] stands for this setting: dose: 100.0 mg/kg/injection, schedule: Q04DX003 (ip), vehicle: Klucel (hydroxypropylcellulose) (HPC).
The mark [4] stands for this setting: dose: 200.0 mg/kg/injection, schedule: Q04DX003 (ip), vehicle: Klucel (hydroxypropylcellulose) (HPC).
Where [5] appears, read: dose: 400.0 mg/kg/injection, schedule: Q04DX003 (ip), vehicle: Klucel (hydroxypropylcellulose) (HPC).
[6] abbreviates: dose: 200.0 mg/kg/injection, schedule: Q04DX003 (ip), vehicle: saline.
[7] abbreviates: dose: 100.0 mg/kg/injection, schedule: Q04DX003 (ip), vehicle: saline with Tween-80.
Where [8] appears, read: dose: 400.0 mg/kg/injection, schedule: Q04DX003 (ip), vehicle: saline with Tween-80.

Drawing on PubChem BioAssay AID328 (DTP/NCI, 2004), this text covers T/C for 17 compounds.

Each structure is given as a SMILES string. “And” between values parts separate entries of the source, which are not always exact repeats. Equal entries are not always repeated. Toxic doses and inconclusive results are not listed.

In the case of `C=CC(=O)O`, the T/C runs as follows: (dose: 0.2 mg/kg/injection, schedule: Q01DX001 (ip), vehicle: Klucel (hydroxypropylcellulose) (HPC)) 95 % of control; (dose: 0.41 mg/kg/injection, schedule: Q01DX001 (ip), vehicle: Klucel (hydroxypropylcellulose) (HPC)) 100 % of control; (dose: 0.82 mg/kg/injection, schedule: Q01DX001 (ip), vehicle: Klucel (hydroxypropylcellulose) (HPC)) 104 % of control; (dose: 1.15 mg/kg/injection, schedule: Q04DX003 (ip), vehicle: Klucel (hydroxypropylcellulose) (HPC)) 109 % of control; (dose: 1.65 mg/kg/injection, schedule: Q01DX001 (ip), vehicle: Klucel (hydroxypropylcellulose) (HPC)) 115 % of control; (dose: 2.3 mg/kg/injection, schedule: Q04DX003 (ip), vehicle: Klucel (hydroxypropylcellulose) (HPC)) 100 % of control. Also, the T/C reads like this: (dose: 3.0 mg/kg/injection, schedule: Q01DX009 (ip), vehicle: saline) 100 % of control; (dose: 3.0 mg/kg/injection, schedule: Q04DX003 (ip), vehicle: saline sonified) 109 % of control; (dose: 4.0 mg/kg/injection, schedule: Q04DX003 (ip), vehicle: saline) 116 % of control; (dose: 4.6 mg/kg/injection, schedule: Q04DX003 (ip), vehicle: Klucel (hydroxypropylcellulose) (HPC)) 100 % of control; (dose: 6.0 mg/kg/injection, schedule: Q01DX009 (ip), vehicle: saline) 100 % of control; (dose: 6.0 mg/kg/injection, schedule: Q04DX003 (ip), vehicle: saline sonified) 172 % of control. Moreover, the T/C was 109 % of control (dose: 6.6 mg/kg/injection, schedule: Q04DX003 (ip), vehicle: Klucel (hydroxypropylcellulose) (HPC)); 122 % of control (dose: 8.0 mg/kg/injection, schedule: Q04DX003 (ip), vehicle: saline); 122 % of control (dose: 12.0 mg/kg/injection, schedule: Q04DX003 (ip), vehicle: saline); 122 % of control (dose: 18.0 mg/kg/injection, schedule: Q04DX003 (ip), vehicle: saline).

Take `Cc1cc(C)[s+]s1`: the T/C is, setting by setting: (dose: 0.78 mg/kg/injection, schedule: Q01DX009 (ip), vehicle: water) 91 % of control; (dose: 3.12 mg/kg/injection, schedule: Q01DX009 (ip), vehicle: water) 97 % of control; (dose: 6.25 mg/kg/injection, schedule: Q01DX009 (ip), vehicle: water) 91 % of control.

For the compound `Nc1ncnc2nc[nH]c12.[Cl][Pt][Cl]`, the T/C by setting is: (dose: 100.0 mg/kg/injection, schedule: Q01DX009 (ip), vehicle: water) 114 % of control; (dose: 100.0 mg/kg/injection, schedule: Q04DX003 (ip), vehicle: water) 93 % of control; under setting [1], 118 % of control; (dose: 200.0 mg/kg/injection, schedule: Q04DX003 (ip), vehicle: water) 98 % of control; under setting [2], 104 % of control; (dose: 400.0 mg/kg/injection, schedule: Q04DX003 (ip), vehicle: water) 98 % of control.

In the case of `CCOC(=O)CNCc1cccc(Br)c1`, the T/C reads like this: (dose: 50.0 mg/kg/injection, schedule: Q01DX005 (ip), vehicle: saline) 104 % of control; (dose: 100.0 mg/kg/injection, schedule: Q01DX005 (ip), vehicle: saline) 106 % of control; (dose: 200.0 mg/kg/injection, schedule: Q01DX005 (ip), vehicle: saline) 98 % of control; (dose: 400.0 mg/kg/injection, schedule: Q01DX005 (ip), vehicle: saline) 104 % of control.

With `CC(=O)OC(C)(C)c1ccccc1[S+]1OC(C)(C)c2ccccc21` (configuration not stated), for the setting “dose: 100.0 mg/kg/injection, schedule: Q01DX001 (ip), vehicle: other”, the T/C is 100 % of control.

For the compound `O=C(c1ccccc1)C(Br)c1ccc([N+](=O)[O-])cc1` (configuration not stated), the T/C is 100 % of control under setting [3], 90 % of control under setting [4] and 100 % of control under setting [5].

With `CS(=O)(=O)Nc1ccc(Nc2c3ccccc3nc3cc(Cl)ccc23)cc1`, the T/C is 100 % of control (dose: 9.6 mg/kg/injection, schedule: Q04DX003 (ip), vehicle: Klucel (hydroxypropylcellulose) (HPC)); 104 % of control (dose: 14.0 mg/kg/injection, schedule: Q04DX003 (ip), vehicle: Klucel (hydroxypropylcellulose) (HPC)); 260 % of control and 195 % of control (dose: 132.0 mg/kg/injection, schedule: Q04DX003 (ip), vehicle: saline); 272 % of control and 205 % of control under setting [6]; 259 % of control (dose: 300.0 mg/kg/injection, schedule: Q04DX003 (ip), vehicle: saline).

Take `O=[N+]([O-])c1ccc(-n2[nH]nnc2=S)cc1`: the T/C runs as follows: (dose: 50.0 mg/kg/injection, schedule: Q04DX003 (ip), vehicle: saline with Tween-80) 107 % of control; under setting [7], 104 % of control; under setting [8], 95 % of control.

As for `O=C(O)c1ccc(C(Cl)(Cl)Cl)cc1`, the T/C (dose: 18.75 mg/kg/injection, schedule: Q01DX009 (ip), vehicle: Klucel (hydroxypropylcellulose) (HPC)) is 95 % of control; the T/C (dose: 33.0 mg/kg/injection, schedule: Q01DX009 (ip), vehicle: saline with Tween-80) is 116 % of control; the T/C (dose: 50.0 mg/kg/injection, schedule: Q01DX009 (ip), vehicle: saline with Tween-80) is 112 % of control; the T/C (dose: 75.0 mg/kg/injection, schedule: Q01DX009 (ip), vehicle: saline with Tween-80) was 108 % of control; the T/C (dose: 150.0 mg/kg/injection, schedule: Q01DX009 (ip), vehicle: saline with Tween-80) is 123 % of control.

In the case of `O=S(=O)(Nc1c(Cl)c(Cl)c(Cl)c(Cl)c1NS(=O)(=O)c1ccccc1)c1ccccc1`, the T/C reads like this: under setting [3], 100 % of control; under setting [4], 105 % of control; under setting [5], 100 % of control.

Consider `COC(=O)c1cc(=O)n(-c2cccc(F)c2)c(SC)n1`, for which the T/C by setting is: under setting [3], 114 % of control; under setting [4], 114 % of control.

As for `CC(=N\O)/C(C)=N/O.CC(=N\O)/C(C)=N/O.O=C(O)C1CC[N-]CC1.O=C(O)C1CC[N-]CC1.O=C(O)C1CC[N-]CC1.O=C(O)C1CC[N-]CC1.[Cl-].[Cl-].[Cl][Rh][Cl].[Rh+3]`, the T/C reads like this: (dose: 25.0 mg/kg/injection, schedule: Q01DX009 (ip), vehicle: water) 100 % of control; (dose: 50.0 mg/kg/injection, schedule: Q01DX009 (ip), vehicle: water) 94 % of control; under setting [1], 94 % of control; under setting [2], 88 % of control.

Take `Cc1cc2c3ccccc3ncn2n1`: the T/C is, setting by setting: (dose: 100.0 mg/kg/injection, schedule: Q01DX001 (ip), vehicle: saline) 100 % of control; (dose: 100.0 mg/kg/injection, schedule: Q01DX009 (ip), vehicle: Klucel (hydroxypropylcellulose) (HPC)) 100 % of control; (dose: 100.0 mg/kg/injection, schedule: Q04DX003 (ip), vehicle: saline) 100 % of control; (dose: 200.0 mg/kg/injection, schedule: Q01DX001 (ip), vehicle: saline) 108 % of control; (dose: 200.0 mg/kg/injection, schedule: Q01DX009 (ip), vehicle: Klucel (hydroxypropylcellulose) (HPC)) 108 % of control; under setting [6], 100 % of control. For the same compound, the T/C (dose: 400.0 mg/kg/injection, schedule: Q04DX003 (ip), vehicle: saline) is 100 % of control.

As for `O=C(Nc1cccc(Cl)c1Cl)SCCSC(=O)Nc1cccc(Cl)c1Cl`, the T/C reads like this: (dose: 12.5 mg/kg/injection, schedule: Q01DX009 (ip), vehicle: gum acacia) 118 % of control; (dose: 25.0 mg/kg/injection, schedule: Q01DX009 (ip), vehicle: gum acacia) 100 % of control; (dose: 50.0 mg/kg/injection, schedule: Q01DX009 (ip), vehicle: gum acacia) 118 % of control.

Regarding `Cc1ncc([N+](=O)[O-])n1CCSSCCn1c([N+](=O)[O-])cnc1C`, the T/C under setting [7] is 118 % of control; the T/C (dose: 200.0 mg/kg/injection, schedule: Q04DX003 (ip), vehicle: saline with Tween-80) was 118 % of control; the T/C under setting [8] is 115 % of control.

As for `CC(C)Cc1c(N)nc(=O)[nH]c1C(=O)O`, the T/C reads like this: (dose: 50.0 mg/kg/injection, schedule: Q04DX003 (ip), vehicle: Klucel (hydroxypropylcellulose) (HPC)) 109 % of control; under setting [3], 95 % of control; under setting [4], 100 % of control.

Regarding `O=C(CCCN1CCC(C(=O)c2ccc(Cl)cc2)CC1)c1ccc(F)cc1`, the T/C (dose: 12.5 mg/kg/injection, schedule: Q01DX009 (ip), vehicle: Klucel (hydroxypropylcellulose) (HPC)) was 112 % of control.
